Laboratory results taken from paper PMC4078991 (Nature, 2014).

How the values were obtained:
apoptotic Jurkat cells [1] = assay: Formation of apoptotic bodies from apoptotic Jurkat cells; type: cell-based; details: for formation of apoptotic bodies in Jurkat cells expressing PANX1 DN mutant: inhibitors of blebbing; for formation of apoptotic bodies: Jurkat cells, anti-Fas induced apoptosis
PANX1-GFP = assay: Proteolytic cleavage of PANX1-GFP during apoptosis; type: cell-based; details: 500 μM
PANX1 [2] = target: T1, PANX1 (Homo sapiens, UniProt Q96RD7); type: cell-based; details: Jurkat cells 2h anti-Fas, trovafloxacin 20 μM; for effect on outward current of apoptotic cells: at +80mV; for effect on inward current of apoptotic cells: at -50mV
T1 sequence (Q96RD7 1-379 limits assumed): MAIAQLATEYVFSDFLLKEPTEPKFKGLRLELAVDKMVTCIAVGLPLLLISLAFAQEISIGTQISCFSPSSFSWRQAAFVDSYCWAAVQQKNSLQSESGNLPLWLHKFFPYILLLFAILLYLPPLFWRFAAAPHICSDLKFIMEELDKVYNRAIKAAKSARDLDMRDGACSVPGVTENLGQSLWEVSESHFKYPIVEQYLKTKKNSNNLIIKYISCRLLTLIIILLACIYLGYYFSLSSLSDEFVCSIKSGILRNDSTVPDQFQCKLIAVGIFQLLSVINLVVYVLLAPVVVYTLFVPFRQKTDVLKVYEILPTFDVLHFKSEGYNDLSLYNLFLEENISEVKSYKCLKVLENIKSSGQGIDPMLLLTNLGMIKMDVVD

apoptotic Jurkat cells [3] = assay: Time-lapse microscopy of apoptotic cell morphology; type: cell-based; details: time-lapse imaging
PANX1 [4] = target: T1, PANX1; assay: TO-PRO-3 uptake by apoptotic Jurkat cells; type: cell-based; details: for inhibition of TO-PRO-3 uptake (PANX1-dependent dye uptake) by apoptotic cells: anti-Fas, compound present during apoptosis induction
Escherichia coli = assay: Bacterial growth assay; type: cell-based; details: 6h incubation, O.D. at 600 nm
primary thymocytes = type: cell-based, mouse; details: 10 μM
PANX1 [5] = target: T1, PANX1; assay: ATP release from apoptotic cells; type: cell-based; details: apoptotic Jurkat cells
caspase 3/7 = assay: Caspase 3/7 activation in Jurkat cells undergoing apoptosis; type: cell-based; details: trovafloxacin 40 μM
connexin 43 (Cx43) = connexin 43 (Cx43) (Homo sapiens, UniProt P17302); assay: Whole-cell patch-clamp of Cx43 current in HEK293T cells; type: cell-based; details: 20 μM
connexin 43 (Cx43), sequence (P17302 2-382 limits assumed, species assumed): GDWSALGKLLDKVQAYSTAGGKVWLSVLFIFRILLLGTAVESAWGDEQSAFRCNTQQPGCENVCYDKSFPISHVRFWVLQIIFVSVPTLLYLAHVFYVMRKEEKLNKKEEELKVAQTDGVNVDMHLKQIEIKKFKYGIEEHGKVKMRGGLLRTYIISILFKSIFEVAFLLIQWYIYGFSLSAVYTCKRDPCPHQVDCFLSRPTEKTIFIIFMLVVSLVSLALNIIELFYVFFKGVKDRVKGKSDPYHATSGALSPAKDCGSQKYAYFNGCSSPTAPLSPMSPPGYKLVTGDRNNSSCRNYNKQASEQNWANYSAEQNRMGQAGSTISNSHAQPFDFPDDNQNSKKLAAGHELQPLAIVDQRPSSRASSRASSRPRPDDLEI

mouse Panx2 = target: T2, mouse Panx2 (Mus musculus, UniProt Q6IMP4); assay: Whole-cell patch-clamp of Panx2 current in HEK293T cells; type: cell-based; details: 20 μM
T2 sequence (Q6IMP4 1-677): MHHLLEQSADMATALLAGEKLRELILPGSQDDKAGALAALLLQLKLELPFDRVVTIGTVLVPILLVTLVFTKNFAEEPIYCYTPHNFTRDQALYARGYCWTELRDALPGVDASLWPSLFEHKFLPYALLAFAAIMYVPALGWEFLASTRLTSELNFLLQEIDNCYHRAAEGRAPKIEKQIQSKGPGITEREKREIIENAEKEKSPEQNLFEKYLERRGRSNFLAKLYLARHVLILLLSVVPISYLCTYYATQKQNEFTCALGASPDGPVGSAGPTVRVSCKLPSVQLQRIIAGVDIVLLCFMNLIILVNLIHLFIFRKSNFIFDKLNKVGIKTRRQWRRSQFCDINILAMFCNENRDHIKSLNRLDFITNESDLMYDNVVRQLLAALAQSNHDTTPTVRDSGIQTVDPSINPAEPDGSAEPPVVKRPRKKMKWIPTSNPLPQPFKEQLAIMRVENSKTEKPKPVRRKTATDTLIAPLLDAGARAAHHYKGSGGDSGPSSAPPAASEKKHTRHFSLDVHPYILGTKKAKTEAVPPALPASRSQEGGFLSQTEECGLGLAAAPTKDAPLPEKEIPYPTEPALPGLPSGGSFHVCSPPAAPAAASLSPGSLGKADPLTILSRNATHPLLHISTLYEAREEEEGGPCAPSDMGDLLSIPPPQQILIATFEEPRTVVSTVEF

apoptotic thymocytes = assay: In vivo model of thymic apoptosis; set-up: species or system mouse; details: wild-type mice, administered with dexamethasone
[6] = cited from earlier work
[7] = cited from earlier work; remark: listed apart in the source

Compound: Cc1ccc2c(c1)C(=O)C1(O)CCN(c3ccccc3)C1=N2 (centres unmarked) [blebbistatin]
- formation of apoptotic bodies in Jurkat cells expressing PANX1 DN mutant (apoptotic Jurkat cells [1]): reduce the formation of apoptotic bodies

Compound: CC1(C)[C@@H](OC(=O)CCC(=O)O)CC[C@]2(C)[C@H]3C(=O)C=C4[C@@H]5C[C@@](C)(C(=O)O)CC[C@]5(C)CC[C@@]4(C)[C@]3(C)CC[C@@H]12 [CBX, carbenoxolone]
- proteolytic cleavage of PANX1-GFP during apoptosis (PANX1-GFP): not inhibited
- effect on outward current of apoptotic cells (PANX1 [2]): blocked both inward and outward currents
- effect on inward current of apoptotic cells (PANX1 [2]): blocked both inward and outward currents
- formation of apoptotic bodies (apoptotic Jurkat cells [1]): promoted formation of apoptotic bodies
- formation of apoptopodia (string-like structures) by apoptotic cells (apoptotic Jurkat cells [3]): produced long string-like structures

Compound: apyrase
- formation of apoptotic bodies (apoptotic Jurkat cells [1]): did not promote the formation of apoptotic bodies

Compound: C[C@H]1COc2c(N3CCN(C)CC3)c(F)cc3c(=O)c(C(=O)O)cn1c23 [levofloxacin]
- inhibition of TO-PRO-3 uptake (PANX1-dependent dye uptake) by apoptotic cells (PANX1 [4]): did not block PANX1-dependent dye uptake
- Escherichia coli growth (Escherichia coli): inhibit bacterial growth

Compound: CCCN(CCC)S(=O)(=O)c1ccc(C(=O)O)cc1 [probenecid]
- formation of apoptotic bodies (apoptotic Jurkat cells [1]): promoted formation of apoptotic bodies

Compound: C[C@@H](N)[C@H]1CC[C@H](C(=O)Nc2ccncc2)CC1 [Y-27632]
- formation of apoptotic bodies in Jurkat cells expressing PANX1 DN mutant (apoptotic Jurkat cells [1]): reduce the formation of apoptotic bodies
- enhanced formation of apoptotic bodies in apoptotic thymocytes from mice with PANX1 deficiency (primary thymocytes): blunted

Compound: C=C1[C@@H](C)[C@H]2[C@H](Cc3ccccc3)NC(=O)[C@]23[C@H](OC(C)=O)/C=C/[C@@](C)(O)C(=O)[C@@H](C)C/C=C/[C@H]3[C@@H]1O [cytochalasin D]
- formation of apoptotic bodies in Jurkat cells expressing PANX1 DN mutant (apoptotic Jurkat cells [1]): reduce the formation of apoptotic bodies

Compound: NC1CCN(c2nc3c(cc2F)c(=O)c(C(=O)O)cn3-c2ccc(F)cc2F)C1 (centres unmarked) [tosulfoxacin, tosufloxacin]
- inhibition of TO-PRO-3 uptake (PANX1-dependent dye uptake) by apoptotic cells (PANX1 [4]): partially inhibited ATP release and TO-PRO-3 uptake
- inhibition of ATP release from apoptotic cells (PANX1 [5]): partially inhibited ATP release
- formation of apoptotic bodies (apoptotic Jurkat cells [1]): promoted the formation of apoptotic bodies

Compound: N[C@@H]1[C@H]2CN(c3nc4c(cc3F)c(=O)c(C(=O)O)cn4-c3ccc(F)cc3F)C[C@@H]12 [trovafloxacin]
- inhibition of TO-PRO-3 uptake (PANX1-dependent dye uptake) by apoptotic cells (PANX1 [4]): potent inhibitor of TO-PRO-3 uptake
- TO-PRO-3 uptake after acute treatment of cells already undergoing apoptosis (PANX1 [4]; compound added post induction of apoptosis, 20 min): acutely blocked TO-PRO-3 uptake
- inhibition of ATP release from apoptotic cells (PANX1 [5]): inhibited ATP release
- caspase 3/7 activation during apoptosis (caspase 3/7): did not inhibit caspase 3/7 activation
- effect on outward current of apoptotic cells (PANX1 [2]): minimal effect on outward current
- effect on inward current of apoptotic cells (PANX1 [2]): rapidly inhibited the inward current
- inhibition of connexin 43 gap junction current (connexin 43 (Cx43)): did not inhibit
- inhibition of PANX2 current (mouse Panx2): did not inhibit
- formation of apoptotic bodies (apoptotic Jurkat cells [1]): promoted the formation of apoptotic bodies in a concentration-dependent manner
- fragmentation of apoptotic thymocytes in vivo (SSC high particles) (apoptotic thymocytes): promoted the fragmentation of the apoptotic thymocytes
- Escherichia coli growth (Escherichia coli): inhibit bacterial growth
- formation of apoptopodia (string-like structures) by apoptotic cells (apoptotic Jurkat cells [3]): produced long string-like structures
- concentrations normally achieved in human plasma [6]: 2000 to 10000 nM
- side effects linked to use in patients [7]: serious adverse side effects

Compound: O=C(O)c1cn(C2CC2)c2cc(N3CCNCC3)c(F)cc2c1=O [ciprofloxacin]
- Escherichia coli growth (Escherichia coli): inhibit bacterial growth

Compound: Cc1ccc(C(=O)Nc2ccc(S(=O)(=O)O)c3cc(S(=O)(=O)O)cc(S(=O)(=O)O)c23)cc1NC(=O)c1cccc(NC(=O)Nc2cccc(C(=O)Nc3cc(C(=O)Nc4ccc(S(=O)(=O)O)c5cc(S(=O)(=O)O)cc(S(=O)(=O)O)c45)ccc3C)c2)c1 [suramin]
- formation of apoptotic bodies (apoptotic Jurkat cells [1]): did not enhance formation of apoptotic bodies

Compound: CN1CCN(c2cc3c(cc2F)c(=O)c(C(=O)O)cn3-c2ccc(F)cc2)CC1 [difloxacin]
- inhibition of TO-PRO-3 uptake (PANX1-dependent dye uptake) by apoptotic cells (PANX1 [4]): partially inhibited ATP release and TO-PRO-3 uptake
- inhibition of ATP release from apoptotic cells (PANX1 [5]): partially inhibited ATP release
- formation of apoptotic bodies (apoptotic Jurkat cells [1]): promoted the formation of apoptotic bodies
